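Dose response: 5 concentrations. Exposure: 48 h. Format: 96-well plates. Endpoint: linear interpolation; highest concentration if not reached. At the GI50, growth is halved.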 Activity calls are given as the source filed them. Cut-off read from the data, not from the text of the source: active = GI50 up to about 1.1 µM and inactive = higher.
Tests used:
Assay in all cases: NCI tumour cell line growth inhibition, 48 h
NCI-H522 = tested on: NCI-H522
A549 = tested on: A549
IGROV-1 = tested on: IGROV-1
CCRF-CEM = tested on: CCRF-CEM
SK-MEL-5 = tested on: SK-MEL-5
NCI-H460 = tested on: NCI-H460
Hs-578T = tested on: Hs-578T
UACC-62 = tested on: UACC-62
DU-145 = tested on: DU-145
SNB-19 = tested on: SNB-19
NCI-H226 = tested on: NCI-H226
SF-295 = tested on: SF-295
SK-MEL-28 = tested on: SK-MEL-28
MDA-N = tested on: MDA-N
UACC-257 = tested on: UACC-257
ACHN = tested on: ACHN
CAKI-1 = tested on: CAKI-1
MOLT-4 = tested on: MOLT-4
OVCAR-4 = tested on: OVCAR-4
T47D = tested on: T47D

| Structure (SMILES) | GI50 (NCI-H522) | GI50 (A549) | GI50 (IGROV-1) | GI50 (CCRF-CEM) | GI50 (SK-MEL-5) | GI50 (NCI-H460) | GI50 (Hs-578T) | GI50 (UACC-62) | GI50 (DU-145) | GI50 (SNB-19) | GI50 (NCI-H226) | GI50 (SF-295) | GI50 (SK-MEL-28) | GI50 (MDA-N) | GI50 (UACC-257) | GI50 (ACHN) | GI50 (CAKI-1) | GI50 (MOLT-4) | GI50 (OVCAR-4) | GI50 (T47D) |
| --- | --- | --- | --- | --- | --- | --- | --- | --- | --- | --- | --- | --- | --- | --- | --- | --- | --- | --- | --- | --- |
| CC[N+]1(C)CCC(O)(c2ccc(OC)cc2)C(C(=O)c2ccc(OC)cc2)C1 (stereo not given) | 1.98 µM (inactive) | 19.9 µM (inactive) | 20.5 µM (inactive) | 2.02 µM (inactive) | 15.4 µM (inactive) | 21.8 µM (inactive) | 0.0368 µM (active) | 18.8 µM (inactive) | 15.9 µM (inactive) | 32.1 µM (inactive) | 18.7 µM (inactive) | 20 µM (inactive) | 15.1 µM (inactive) | 16.6 µM (inactive) | 17.5 µM (inactive) | 13.1 µM (inactive) | 5.9 µM (inactive) | 2.23 µM (inactive) | 22 µM (inactive) | 13.4 µM (inactive) |
| O=c1oc2ccccc2cc1-c1ccc([N+](=O)[O-])cc1 | 56.1 µM (inactive) | 85.9 µM (inactive) | > 100 µM (inactive) | > 100 µM (inactive) | 53 µM (inactive) | 14.6 µM (inactive) | 99.5 µM (inactive) | 89.5 µM (inactive) | > 100 µM (inactive) | 14.7 µM (inactive) | > 100 µM (inactive) | 83.6 µM (inactive) | > 100 µM (inactive) | > 100 µM (inactive) | > 100 µM (inactive) | > 100 µM (inactive) | > 100 µM (inactive) | > 100 µM (inactive) | > 100 µM (inactive) | > 100 µM (inactive) |
| Cc1ccc(CC2(OCCN(C)C)CCC(C(C)(C)C)CC2)cc1 (stereo not given) | 3.53 µM (inactive) | 3.6 µM (inactive) | 6.5 µM (inactive) | 2.41 µM (inactive) | 1.58 µM (inactive) | 1.99 µM (inactive) | 12.1 µM (inactive) | 2.15 µM (inactive) | 3.78 µM (inactive) | 4.39 µM (inactive) | 5.78 µM (inactive) | 5.22 µM (inactive) | 1.88 µM (inactive) | 2.53 µM (inactive) | 2.65 µM (inactive) | 6.87 µM (inactive) | 4.99 µM (inactive) | 1.71 µM (inactive) | 4.16 µM (inactive) | 2.87 µM (inactive) |
| CCN(CC)CCNc1ccc2nnn3c4ccc(OC(C)=O)cc4c(=O)c1c23 | 0.628 µM (active) | 3.14 µM (inactive) | 0.224 µM (active) | 0.644 µM (active) | 1.88 µM (inactive) | 0.243 µM (active) | 4.39 µM (inactive) | 11.4 µM (inactive) | 2.39 µM (inactive) | > 20.3 µM (inactive) | 0.615 µM (active) | 4.51 µM (inactive) | 13.4 µM (inactive) | 4.61 µM (inactive) | 9.84 µM (inactive) | 1.02 µM (active) | 0.378 µM (active) | 0.284 µM (active) | 2.36 µM (inactive) | 15.8 µM (inactive) |
| CC[C@@]1(O)C(=O)OCc2c1cc1n(c2=O)Cc2c-1nc1ccccc1c2/C=N\NC(=O)C(N)CO (stereo not given in full) | 1.28 µM (inactive) | 1.05 µM (active) | 7.59 µM (inactive) | 0.0474 µM (active) | 0.684 µM (active) | 0.184 µM (active) | > 67.9 µM (inactive) | < 0.0395 µM (active) | 0.379 µM (active) | 0.202 µM (active) | 0.627 µM (active) | 0.505 µM (active) | 19.2 µM (inactive) | 6.52 µM (inactive) | 3.59 µM (inactive) | 0.191 µM (active) | 0.408 µM (active) | 0.0466 µM (active) | 14.2 µM (inactive) | 0.239 µM (active) |
| CCOP(=O)(OCC)C(NC(=O)OCC(Cl)(Cl)Cl)n1nnc(C(=O)OC)c1C(=O)OC (stereo not given) | > 100 µM (inactive) | > 100 µM (inactive) | > 100 µM (inactive) | > 100 µM (inactive) | > 100 µM (inactive) | > 100 µM (inactive) | > 100 µM (inactive) | > 100 µM (inactive) | > 100 µM (inactive) | > 100 µM (inactive) | > 100 µM (inactive) | > 100 µM (inactive) | > 100 µM (inactive) | > 100 µM (inactive) | > 100 µM (inactive) | > 100 µM (inactive) | > 100 µM (inactive) | > 100 µM (inactive) | > 100 µM (inactive) | > 100 µM (inactive) |
| CC(=O)c1c(SCCN2CCCCCC2)n(-c2ccccc2)c(=S)n(-c2ccccc2)c1=O | 1.43 µM (inactive) | 6.82 µM (inactive) | 8.3 µM (inactive) | 0.0462 µM (active) | 9.68 µM (inactive) | 24.7 µM (inactive) | 17.7 µM (inactive) | 7.85 µM (inactive) | 2.17 µM (inactive) | 51.1 µM (inactive) | 29 µM (inactive) | 35.9 µM (inactive) | 11.2 µM (inactive) | 7.29 µM (inactive) | 4.07 µM (inactive) | 1.68 µM (inactive) | 3.85 µM (inactive) | 2.16 µM (inactive) | 20.9 µM (inactive) | 2.31 µM (inactive) |
| COc1ccc(OC)c(C(=O)c2cccc(C(=O)c3cc(OC)ccc3OC)n2)c1 | 29.8 µM (inactive) | 42.9 µM (inactive) | 38.8 µM (inactive) | 46.8 µM (inactive) | 15 µM (inactive) | 36.3 µM (inactive) | 27 µM (inactive) | 31.1 µM (inactive) | 93.1 µM (inactive) | 43.3 µM (inactive) | 27.3 µM (inactive) | 29.9 µM (inactive) | 41 µM (inactive) | 17 µM (inactive) | 53.2 µM (inactive) | 43.5 µM (inactive) | 71.8 µM (inactive) | 30.8 µM (inactive) | > 100 µM (inactive) | 29.6 µM (inactive) |
| N#C/C(=C\c1ccc(F)cc1)c1nc(-c2cc3ccccc3oc2=O)cs1 | 17.9 µM (inactive) | 55.5 µM (inactive) | 22.6 µM (inactive) | > 100 µM (inactive) | 15.3 µM (inactive) | 33.5 µM (inactive) | 15.1 µM (inactive) | 15 µM (inactive) | 38.6 µM (inactive) | 11.8 µM (inactive) | 28.7 µM (inactive) | 14 µM (inactive) | 44.7 µM (inactive) | 76.2 µM (inactive) | 20.7 µM (inactive) | 22 µM (inactive) | 53.6 µM (inactive) | > 100 µM (inactive) | 10.4 µM (inactive) | 24.2 µM (inactive) |
| CCCCCC/C=C\CCCCCCCCCc1c(O)c(OC)cc(O)c1CN(C)C | 1.64 µM (inactive) | 4.04 µM (inactive) | 3.18 µM (inactive) | 0.887 µM (active) | 5.41 µM (inactive) | 3.67 µM (inactive) | 2.7 µM (inactive) | 10.6 µM (inactive) | 17.9 µM (inactive) | 12.9 µM (inactive) | 17 µM (inactive) | 5.38 µM (inactive) | 13.2 µM (inactive) | 13 µM (inactive) | 11.4 µM (inactive) | 10.7 µM (inactive) | 13.8 µM (inactive) | 1.69 µM (inactive) | 1.47 µM (inactive) | 1.76 µM (inactive) |
| CN(C)CCCCN1c2ccccc2Sc2ccc(C(=O)c3ccccc3)cc21 | 2.91 µM (inactive) | 3.47 µM (inactive) | 2.9 µM (inactive) | 2.27 µM (inactive) | 1.82 µM (inactive) | 2.24 µM (inactive) | 2.22 µM (inactive) | 2.37 µM (inactive) | 3.63 µM (inactive) | 4.06 µM (inactive) | 5.96 µM (inactive) | 2.15 µM (inactive) | 1.95 µM (inactive) | 2.65 µM (inactive) | 1.94 µM (inactive) | 2.94 µM (inactive) | 2.19 µM (inactive) | 2.21 µM (inactive) | 3.23 µM (inactive) | 3.59 µM (inactive) |
| NC(Cc1ncccn1)C(=O)O (stereo not given) | > 100 µM (inactive) | > 100 µM (inactive) | > 100 µM (inactive) | > 100 µM (inactive) | > 100 µM (inactive) | > 100 µM (inactive) | > 100 µM (inactive) | > 100 µM (inactive) | > 100 µM (inactive) | > 100 µM (inactive) | > 100 µM (inactive) | > 100 µM (inactive) | > 100 µM (inactive) | > 100 µM (inactive) | > 100 µM (inactive) | > 100 µM (inactive) | > 100 µM (inactive) | > 100 µM (inactive) | > 100 µM (inactive) | > 100 µM (inactive) |
| Cc1cc(C)c2c(c1)C(=O)C1(C2)Cc2c(ccc(C)c2C)C1=O (stereo not given) | 43.8 µM (inactive) | > 100 µM (inactive) | > 100 µM (inactive) | > 100 µM (inactive) | > 100 µM (inactive) | > 100 µM (inactive) | > 100 µM (inactive) | > 100 µM (inactive) | > 100 µM (inactive) | > 100 µM (inactive) | > 100 µM (inactive) | > 100 µM (inactive) | > 100 µM (inactive) | > 100 µM (inactive) | > 100 µM (inactive) | > 100 µM (inactive) | > 100 µM (inactive) | > 100 µM (inactive) | > 100 µM (inactive) | > 100 µM (inactive) |
| CCC(=O)NCCc1c2c3c(ccnc3c3ncsc13)-c1ccccc1N2 [KUANONIAMINE C] | 2.62 µM (inactive) | 0.771 µM (active) | 2.81 µM (inactive) | 2.86 µM (inactive) | 2.72 µM (inactive) | 1.16 µM (inactive) | 0.368 µM (active) | 1.63 µM (inactive) | 0.603 µM (active) | 4.36 µM (inactive) | 0.91 µM (active) | 1.12 µM (active) | 2.56 µM (inactive) | 0.324 µM (active) | 6 µM (inactive) | 0.583 µM (active) | 5.74 µM (inactive) | 1.4 µM (inactive) | 30.4 µM (inactive) | 6.75 µM (inactive) |
